These results are taken from patent US8450525B2, “Histone deacetylase inhibitors” (Orchid Chemicals & Pharmaceuticals Limited, priority 2007, dated 2013).

For assay [1], the system named is T1, HDAC (Mouse Liver Extract).
T1 construct: Mouse liver enzyme (10 mg/ml) was diluted 1:6 with HDAC buffer
Briefly: HDAC inhibition assay using Boc-Lys(Ac)-AMC substrate, mouse liver enzyme. In kind it is biochemical. Here is the method: Histone Deacetylase (HDAC) Inhibition Assay using Boc-Lys (Ac)-AMC Substrate: Inhibition of HDAC has been implicated to modulate transcription and to induce apoptosis or differentiation in cancer cells. The fluorometric assay provides a fast and fluorescence based method that eliminates radioactivity, extractions or chromatography, as used in traditional assays. The assay is based on two steps. First, the HDAC fluorometric substrate, which comprises an acetylated lysine side chain, is incubated with a sample containing HDAC activity (Mouse Liver Extract). Deacetylation of the substrate sensitizes the substrate, in the second step; treatment with the Trypsin stop solution produces a fluorophore that can be easily analyzed using fluorescence plate reader.
Assay was done in 96-well black microplate and total volume of the assay was 100 μL. Mouse liver enzyme (10 mg/ml) was diluted 1:6 with HDAC buffer. Enzyme cocktail was made of 10 μL of diluted enzyme and 30 μL of HDAC buffer. 40 μl of enzyme cocktail followed by 10 μL of test compound (1 μM and 10 μM) or buffer (control) was added to each well. The plate was pre-incubated at 37° C. for 5 minutes. The HDAC reaction was started by adding 50 μl of HDAC substrate Boc-Lys (Ac)-AMC (Bachem AG, Switzerland). The plate was incubated at 37° C. for 30 minutes. […] Measuring the fluorescence at excitation wavelength of 360 nm and emission wavelength of 460 nm monitored the release of AMC. Buffer alone and substrate alone served as blank.

The subject of assay [2] is U251 (glioma) cells. Put plainly: Anti-cancer screen, growth inhibition (MTT). In kind it is cell-based. The settings on record: Homo sapiens, U-251 cells, 48 hours of incubation. Here is the method: (§1) Experimental drugs were screened for anti-cancer activity in three cell fines using five concentrations for each compound.
(§2) Following 24-hour incubation, test compounds were added to the 96 well plates. Each plate contains one of the above cell lines and the following samples in triplicate: five different dilutions (0.01, 0.1, 1, 10 and 100 μM) of four test compounds, appropriate dilutions of a cytotoxic standard and growth medium (untreated) wells. […] SAHA was used as standard drug in these experiments.
(§3) For T0 measurement, 24 hours after seeding the cells, 20 μL of 3-(4.5-dimethyl-2-thiazolyl)-2,5-diphenyl-2H-tetrazolium (MTT) solution per well was added to the ‘T0’ plate and incubated for 3 hours at 37° C. in a CO2 incubator. The plate containing cells and test compounds was treated similarly after 48 hours of incubation. After 3 hours of MTT addition, well contents were aspirated carefully followed by addition of 150 μL DMSO per well. Plates were agitated to ensure dissolution of the formazan crystals in DMSO and absorbance was read at 570 nm (A570).

For assay [3], the system named is NCI-H460 (lung) cells. Briefly: Anti-cancer screen, growth inhibition (MTT). In kind it is cell-based. The settings on record: Homo sapiens, 48 hours of incubation. Here is the method: as §1, §2, §3
Assay [4] deals with HCT 116 (colon) cells. Put plainly: Anti-cancer screen, growth inhibition (MTT). In kind it is cell-based. The settings on record: Homo sapiens, HCT-116 cells, 48 hours of incubation. Here is the method: as §1, §2, §3

Each structure is given as a SMILES string.

On to `Nc1ccccc1NC(=O)c1ccc(/C=C(/C(=O)NC2CC2)c2ccc(-c3ccccc3)cc2)cc1` [Example 125, N-(2-Aminophenyl)-4-(3-(cyclopropylamino)-3-oxo-2-biphenyl-4-yl-prop-1-en-1-yl)benzamide], for which, in assay [1], the “HDAC Inhibition % (1 μM)” value was 31.5%. Besides, the “HDAC Inhibition % (10 μM)” value in assay [1] is 45.4%. Moreover, the values for the GI50 in assay [2], in assay [3] and in assay [4] were 20 µM, 35 µM and 3.6 µM, respectively.

With `Nc1ccccc1NC(=O)c1ccc(/C=C(/CNC2CC2)c2ccc(F)cc2)cc1` [Example 144, N-(2-Aminophenyl)-4-(3-(cyclopropylamino)-2-(4-fluorophenyl)prop-1-en-1-yl)benzamide], the “HDAC Inhibition % (1 μM)” value in assay [1] is recorded as 36.3%. The “HDAC Inhibition % (10 μM)” value in assay [1] is on record as 62.3%. The GI50 (usually the concentration that inhibits growth by half) in assay [2] was 8 µM; in assay [3], 10 µM; in assay [4] it was 5.5 µM.

Consider `O=C(/C=C/c1ccc(/C=C(/C(=O)NC2CC2)c2ccc(F)cc2)cc1)NCc1ccc(C(=O)NO)cc1` [Example 89, 4-(((1E)-3-(4-(3-(Cyclopropylamino)-2-(4-fluorophenyl)-3-oxoprop-1-en-1-yl)phenyl)acrylamido)methyl)-N-hydroxybenzamide], for which the “HDAC Inhibition % (1 μM)” value in assay [1] stood at 42.1%. Moreover, the “HDAC Inhibition % (10 μM)” value in assay [1] came out at 70.3%. The GI50 in assay [2] is 13 µM; in assay [3], > 100 µM; in assay [4], 40 µM.

Turning to `Nc1ccccc1NC(=O)c1ccc(/C=C(/C(=O)NC2CC2)c2ccccc2F)cc1` [Example 109, N-(2-Aminophenyl)-4-(3-(cyclopropylamino)-2-(2-fluorophenyl)-3-oxoprop-1-en-1-yl)benzamide], in assay [1], the “HDAC Inhibition % (1 μM)” value came out at 35.8%. Moreover, in assay [1], the “HDAC Inhibition % (10 μM)” value amounted to 66.8%. Moreover, the GI50 was 21 µM in assay [2], 6.5 µM in assay [3] and 4.1 µM in assay [4].

For the compound `Nc1ccccc1NC(=O)/C=C/c1ccc(/C=C(/C(=O)NC2CC2)c2cccnc2)cc1` [Example 62, N-Cyclopropyl-3-(4-((1E)-3-(2-aminophenylamino)-3-oxoprop-1-en-1-yl}phenyl)-2-(pyridin-3-yl)acrylamide], in assay [1], the “HDAC Inhibition % (1 μM)” value turned out to be 27.1%. Moreover, the “HDAC Inhibition % (10 μM)” value in assay [1] came to 58.0%. Also, the results for the GI50 in assay [3] and in assay [4] were > 100 µM and 64 µM, respectively.

In the case of `O=C(/C=C/c1ccc(/C(=C\c2ccc(OCC3CC3)cc2)C(=O)NC2CC2)cc1)NO` [Example 49, N-Cyclopropyl-3-(4-cyclopropylmethoxyphenyl)-2-(4-((1E)-3-(hydroxyamino)-3-oxoprop-1-en-1-yl)phenyl)acrylamide], the GI50 turned out to be 19 µM in assay [2], 30 µM in assay [3] and 1 µM in assay [4].

Turning to `O=C(/C=C/c1ccc(CNC(=O)c2ccc(/C=C(/C(=O)NC3CC3)c3ccccc3)cc2)cc1)NO` [Example 146, 4-(3-(Cyclopropylamino)-2-phenyl-3-oxoprop-1-en-1-yl)-N-(4-((E)-3-(hydroxyamino)-3-oxoprop-1-en-1-yl)benzyl)benzamide], the results for the GI50 in assay [2], in assay [3] and in assay [4] were 0.8 µM, 1.3 µM and 3 µM, respectively.

Take `O=C(NC1CC1)/C(=C/c1ccc(C(=O)NCc2ccc(C(=O)NO)cc2)cc1)c1ccccc1Cl` [Example 151, 4-(3-(Cyclopropylamino)-2-(2-chlorophenyl)-3-oxoprop-1-en-1-yl)-N-(4-(hydroxycarbamoyl)benzyl)benzamide]: the GI50 in assay [2] is 12 µM; in assay [3], 40 µM; in assay [4], 10 µM.

For the compound `Nc1ccccc1NC(=O)/C=C/c1ccc(/C=C(/C(=O)N2CCOCC2)c2ccc(F)cc2)cc1` [Example 68, N-Morpholino-3-(4-((1E)-3-(2-aminophenylamino)-3-oxoprop-1-en-1-yl}phenyl)-2-(4-fluorophenyl)acrylamide], in assay [1], the “HDAC Inhibition % (1 μM)” value is listed as 19.1% and the “HDAC Inhibition % (10 μM)” value is listed as 21.1%. Also, it took 80 µM to inhibit growth in assay [3] by half (GI50).

Turning to `CNC(=O)/C(=C/c1ccc(/C=C/C(=O)NO)cc1)c1ccc(F)cc1` [Example 2, N-Methyl-2-(4-fluorophenyl)-3-(4-((1E)-3-(hydroxyamino)-3-oxoprop-1-en-1-yl)phenyl)acrylamide], the GI50 turned out to be 4.5 µM in assay [2], 28 µM in assay [3] and 7.8 µM in assay [4].

On to `O=C(CCCCCNC(=O)c1ccc(/C=C(/C(=O)NC2CC2)c2ccc(F)cc2)cc1)NO` [Example 160, 4-(3-(Cyclopropylamino)-2-(4-fluorophenyl)-3-oxoprop-1-en-1-yl)-N-(6-(hydroxyamino)-6-oxohexyl)benzamide], for which the GI50 in assay [2] came out at 0.1 µM; in assay [3], 0.3 µM; in assay [4] it was 20 µM.

In the case of `Nc1ccccc1NC(=O)/C=C/c1ccc(/C=C(/C(=O)NC2CC2)c2ccc(C(F)(F)F)cc2)cc1` [Example 61, N-Cyclopropyl-3-(4-((1E)-3-(2-aminophenylamino)-3-oxoprop-1-en-1-yl}phenyl)-2-(4-(trifluoromethyl)phenyl)acrylamide], in assay [1], the “HDAC Inhibition % (1 μM)” value is 12.3% and the “HDAC Inhibition % (10 μM)” value was found to be 14.6%. For the same compound, the GI50 in assay [3] is > 100 µM. Moreover, the 50% growth inhibitory concentration (GI50) in assay [4] was found to be 68 µM.

In the case of `COc1ccc(/C(=C\c2ccc(C(=O)NO)cc2)C(=O)NC2CC2)cc1` [Example 100, 4-(3-(Cyclopropylamino)-2-(4-methoxyphenyl)-3-oxoprop-1-en-1-yl)-N-hydroxy benzamide], in assay [1], the “HDAC Inhibition % (1 μM)” value is recorded as 39.8% and the “HDAC Inhibition % (10 μM)” value was 76.2%. The GI50 in assay [3] is 67 µM. The compound also had a GI50 in assay [4] of 58 µM.

For the compound `Nc1ccccc1NC(=O)/C=C/c1ccc(/C=C(/C(=O)NC2CC2)c2ccc(F)cc2)cc1` [Example 59], the “HDAC Inhibition % (1 μM)” value in assay [1] stood at 11.5%. In addition, the “HDAC Inhibition % (10 μM)” value in assay [1] is 49.9%. The GI50 worked out at 59.2 µM in assay [3] and 20 µM in assay [4].

Turning to `O=C(NC1CC1)/C(=C/c1ccc(C(=O)NCc2ccc(C(=O)NO)cc2)cc1)c1ccccc1F` [Example 150, 4-(3-(Cyclopropylamino)-2-(2-fluorophenyl)-3-oxoprop-1-en-1-yl)-N-(4-(hydroxycarbamoyl)benzyl)benzamide], the 50% growth inhibitory concentration (GI50) came out at 21 µM in assay [2], 45 µM in assay [3] and 31 µM in assay [4].

As to `COc1cccc(/C(=C\c2ccc(C(=O)NO)cc2)C(=O)NC2CC2)c1` [Example 101, 4-(3-(Cyclopropylamino)-2-(3-methoxyphenyl)-3-oxoprop-1-en-1-yl)-N-hydroxy benzamide], in assay [1], the “HDAC Inhibition % (1 μM)” value worked out at 44.6%. Also, the “HDAC Inhibition % (10 μM)” value in assay [1] is 84.9%. Also, the GI50 worked out at 60 µM in assay [3] and 44 µM in assay [4].

Consider `O=C(NC1CC1)/C(=C/c1ccc(C(=O)NO)cc1)c1ccccc1F` [Example 103, 4-(3-(Cyclopropylamino)-2-(2-fluorophenyl)-3-oxoprop-1-en-1-yl)-N-hydroxy benzamide], for which the GI50 in assay [2] stood at 20 µM; in assay [3], 68 µM; in assay [4], 29 µM.

On to `O=C(/C=C/c1ccc(CNC(=O)c2ccc(/C=C(/C(=O)NC3CC3)c3ccc(F)cc3)cc2)cc1)NO` [Example 145, 4-(3-(Cyclopropylamino)-2-(4-fluorophenyl)-3-oxoprop-1-en-1-yl)-N-(4-((E)-3-(hydroxyamino)-3-oxoprop-1-en-1-yl)benzyl)benzamide], for which the GI50 in assay [2] amounted to 0.08 µM; in assay [3], 0.5 µM; in assay [4] it was 1.6 µM.

`CN(C)C(=O)/C(=C/c1ccc(/C=C/C(=O)NCCCCCC(=O)NO)cc1)c1ccc(F)cc1` [Example 76, 6-((1E)-3-(4-(3-(N,N-Dimethylamino)-2-(4-fluorophenyl)-3-oxoprop-1-en-1-yl)phenyl)acrylamido)-N-hydroxyhexanamide]: the concentration for 50% growth inhibition (GI50) turned out to be 20 µM in assay [3] and 10 µM in assay [4].

Consider `CN(C)C(=O)/C(=C/c1ccc(/C=C/C(=O)NO)cc1)c1ccc(F)cc1` [Example 3, N,N-Dimethyl-2-(4-fluorophenyl)-3-(4-((1E)-3-(hydroxyamino)-3-oxoprop-1-en-1-yl)phenyl)acrylamide], for which the values for the GI50 in assay [2], in assay [3] and in assay [4] were 21.8 µM, 48 µM and 8.5 µM, respectively.
